Results: patent US9533994B2, “Monoclinic crystalline form of asenapine maleate with a specific particle size distribution” (Laboratorios Lesvi S.L., priority 2011, dated 2017)
Structures can show the parent of a compound that is named as a salt.

Columns and labels:
[1] = Particle Size Distribution (PSD) by Laser Diffraction Spectrometry (Malvern Mastersizer 2000); format: physicochemical; settings: sample in heptane with 0.2% Span-20, by volume
Protocol: Laser Diffraction Spectrometry (LDS) was used to determine the Particle Size Distribution (PSD). The samples were prepared by mixing 100 mg of asenapine maleate with 5 mL of heptane that contains 0.2% of Span-20. Ultrasonic treatment of the samples was performed for 5 minutes and the PSD was analysed using a particle size analyzer Malvern Mastersizer 2000. Refractive index of asenapine 1.800 and absorption 0.01.

[2] = micronised, per EP 1 710 245 B1 and EP 1 917 267 B1; cited from earlier work
[3] = Outcome of micronisation of asenapine maleate crystals; format: physicochemical; settings: micronised crystals, prepared as disclosed in U.S. Pat. No. 4,145,434
Protocol: As described in Funke et al., Arzneim.-Forsch./Drug Res., 40:536-539 (1990), asenapine maleate (Form H) was the first known polymorphic form. Form H is a monoclinic crystalline form having a melting point in the range of 141° C. to 145° C. EP 1 710 245 B1 and EP 1 917 267 B1 described the discovery of a new form of asenapine maleate (Form L), which is an orthorhombic crystalline form having a melting point in the range of 138° C. to 142° C. EP 1 710 245 131 and EP 1 917 267 B1 mention the importance of asenapine particle size since asenapine commercial sublingual tablets are dissolved in the mouth. Thus, particles having a size distribution characterized by a d95 (95% volume of the particles are smaller than or equal to the indicated size) of about 100 μm or less, more preferably about 50 μm or less, and even more preferably about 30 μm or less, is desirable for sublingual formulations. According to EP 1 710 245 B1 and EP 1 917 267 B1, the outcome of the micronisation process used therein, and which is necessary to reduce the particle size of crystals, appeared to be unpredictable when crystals of monoclinic form of asenapine maleate were subjected to the micronisation process. […]

Row | Structure (SMILES) | PSD d90 [1] | PSD d95 [1] | d95 after micronisation [2] | polymorphic stability after micronisation [3]
1 | CN1C[C@@H]2c3ccccc3Oc3ccc(Cl)cc3[C@H]2C1 (racemic) [Example 12, asenapine maleate] | 53 μm | 120 μm |  | 
2 | CN1C[C@@H]2c3ccccc3Oc3ccc(Cl)cc3[C@H]2C1 (racemic) [Example 1, asenapine maleate] | 16 μm | 24 μm |  | 
3 | CN1C[C@@H]2c3ccccc3Oc3ccc(Cl)cc3[C@H]2C1 (racemic) [Example 8, asenapine maleate] | 54 μm | 68 μm |  | 
4 | CN1C[C@@H]2c3ccccc3Oc3ccc(Cl)cc3[C@H]2C1 (racemic) [Example 13, asenapine maleate] | 31 μm | 38 μm |  | 
5 | CN1C[C@@H]2c3ccccc3Oc3ccc(Cl)cc3[C@H]2C1 (racemic) [asenapine maleate] |  |  | ≤ 30 μm | 
6 | CN1C[C@@H]2c3ccccc3Oc3ccc(Cl)cc3[C@H]2C1 (racemic) [monoclinic form of asenapine maleate, asenapine maleate] |  |  |  | not stable and eventually evolved to the orthorhombic crystalline form

The next lines start with results.

Row | PSD d90 [1] | PSD d95 [1] | Structure (SMILES) | d95 after micronisation [2] | polymorphic stability after micronisation [3]
7 | 36 μm | 48 μm | CN1C[C@@H]2c3ccccc3Oc3ccc(Cl)cc3[C@H]2C1 (racemic) [Example 7, asenapine maleate] |  | 
8 | 29 μm | 35 μm | CN1C[C@@H]2c3ccccc3Oc3ccc(Cl)cc3[C@H]2C1 (racemic) [Example 5, asenapine maleate] |  | 
9 | 37 μm | 49 μm | CN1C[C@@H]2c3ccccc3Oc3ccc(Cl)cc3[C@H]2C1 (racemic) [Example 10, asenapine maleate] |  | 
10 | 46 μm | 56 μm | CN1C[C@@H]2c3ccccc3Oc3ccc(Cl)cc3[C@H]2C1 (racemic) [Example 6, asenapine maleate] |  | 
11 | 17 μm | 21 μm | CN1C[C@@H]2c3ccccc3Oc3ccc(Cl)cc3[C@H]2C1 (racemic) [Example 11, asenapine maleate] |  | 
12 | 31 μm | 37 μm | CN1C[C@@H]2c3ccccc3Oc3ccc(Cl)cc3[C@H]2C1 (racemic) [Example 3, asenapine maleate] |  | 
13 | 21 μm | 28 μm | CN1C[C@@H]2c3ccccc3Oc3ccc(Cl)cc3[C@H]2C1 (racemic) [Example 4, asenapine maleate] |  | 
14 | 15 μm | 20 μm | CN1C[C@@H]2c3ccccc3Oc3ccc(Cl)cc3[C@H]2C1 (racemic) [Example 2, asenapine maleate] |  | 
15 | 23 μm | 28 μm | CN1C[C@@H]2c3ccccc3Oc3ccc(Cl)cc3[C@H]2C1 (racemic) [Example 9, asenapine maleate] |  | 
